For one test, the system named is phospho-histone H3. In words: Screen of Kelly MYCN-amplified cells, western blot for phospho-histone H3. Format: cell-based. The conditions noted are these: 1 μM, 24 hrs. The protocol: (§1) Neuroblastoma tumor cell lines were obtained from the University of California San Francisco Cell Culture Facility (Kelly, SK-N-BE2, and SH-EP). SMS-KCN, SHEP MYCN^wt and MYCN^T58A/S62A cells were obtained. All cells were grown in RPMI with 10% FBS. Neuroblastoma cells were harvested and lysed with Cell Signaling Lysis buffer+1% SDS, sonicated and supernatants boiled in LDS sample buffer (Invitrogen). Western blots were performed as described previously (Chanthery et al., 2012), with primary antibodies to MYCN (ab24193, Abcam), Histone H3, P-Histone H3 (S10), Aurora A (Cell signaling), and GAPDH (Millipore). Western blot quantitation performed with ImageJ software.
To test whether this panel of 32 putative conformation-disrupting Aurora A inhibitors would destabilize MYCN, initially Kelly MYCN-amplified neuroblastoma cells were treated with candidate inhibitors and MYCN protein was measured by western blot. Phosphorylation of Histone H3, a known substrate for Aurora A and B and a marker for mitosis, was also assessed. FIGS. 1B and 5 show decreased levels of both MYCN protein and p-Histone H3 in response to several members of the screening panel (quantitated in FIG. 1).

A further test deals with MYCN. In words: MYCN protein by immunoblot in SHEP cells expressing MYCN. The class given is cell-based. Here is the method:
as §1
MYCN is believed to be sequentially phosphorylated at S62/T58 before it is targeted for degradation by ubiquitination, and only phosphorylated, ubiquitinated MYCN is protected from degradation by Aurora A (Gustafson and Weiss, 2010; Otto et al., 2009).

The next test relates to phospho-pan-Aurora. As to the kind of experiment: Phospho-pan-Aurora by flow cytometry. The class given is cell-based. The conditions noted are these: 1 μM, 6 hrs (FIG. 6C). The protocol: Neuroblastoma cells were treated for the indicated time, trypsinized, washed, stained with Dylight 800 at 0.3 μg/mL (Pierce, 46421), fixed with 1.5% PFA, and permeabilized with 100% methanol. Cells were then stained with antibodies against p-MPM2 (Millipore, 16-155), p-pan-Aurora (Cell Signaling, 2914), MYCN (Thermo, PA5-17403), rabbit IgG (Invitrogen, A10542), or mouse IgG (BioLegend, 405307). Cells were stained with DAPI at 0.3 μg/mL (Invitrogen, D21490) and analyzed on the BD LSR II flow cytometer. For cell cycle analysis, cells were stimulated with EdU for 2 hours prior to harvest, then probed using the Click-iT EdU Flow Cytometry Assay Kit (Invitrogen, C10424). Cells were stained with propidium iodide (BD, 556547) and analyzed on the BD FACSCalibur flow cytometer. Data was gated using Cytobank. For viability studies, neuroblastoma cells were plated in 96-well plates at a density of 1,000 cells/well for SHEP or 4,000 cells/well for Kelly or SK—N-BE2 cells, then incubated with indicated concentrations of drug for 72 hours at 37° C. Plates were frozen at −80° C. to induce cell lysis. CyQUANT reagent mixture (Invitrogen, C7026) was added to thawed plates, then fluorescence was measured. Alternatively, resazurin (Sigma-Aldrich, R7017) was added directly to wells following drug treatment then incubated for 4 hours at 37° C. prior to measuring fluorescence. Data was analyzed using GraphPad Prism software.

The next test relates to M-14. In words: Cancer cell line profiling, Genomics of Drug Sensitivity Project. As to conditions: Homo sapiens, M14, read-out: CD532 EC50 (uM).
A further test concerns COLO-800. Described as above. The conditions noted are these: Homo sapiens, COLO-800, read-out: CD532 EC50 (uM).
The test system of another test is IGR-1. Described as above. As to conditions: Homo sapiens, IGR-1, read-out: CD532 EC50 (uM).
A further test deals with SK-MEL-1. The test is described as above. As to conditions: Homo sapiens, SK-MEL-1, read-out: CD532 EC50 (uM).
In another test the test system is AGS. The test is described as above. The conditions noted are these: Homo sapiens, read-out: CD532 EC50 (uM).
The test system of the next test is FU97. The test is described as above. As to conditions: Fu97, read-out: CD532 EC50 (uM).
Another test relates to NCI-N87. Described as above. The conditions noted are these: Homo sapiens, NCI-N87, read-out: CD532 EC50 (uM).
A further test has as its system B-CPAP. The test is described as above. The conditions noted are these: Homo sapiens, BCPAP, read-out: CD532 EC50 (uM).
The test system of another test is JHH-6. The test is described as above. As to conditions: read-out: CD532 EC50 (uM).
Another test has as its system HLE. Described as above. The conditions noted are these: Homo sapiens, read-out: CD532 EC50 (uM).
The test system of a further test is DJM-1. The description is as above. The conditions noted are these: read-out: CD532 EC50 (uM).
The next test deals with DSH1. Described as above. As to conditions: read-out: CD532 EC50 (uM).
Another test has as its system HT-144. Described as above. As to conditions: Homo sapiens, HT-144, read-out: CD532 EC50 (uM).
A further test has as its system K5. The description is as above. As to conditions: read-out: CD532 EC50 (uM).
For the next test, the system named is LB2518-MEL. The description is as above.
The next test relates to NB13. The description is as above. As to conditions: read-out: CD532 EC50 (uM).
A further test deals with KLE. Described as above. As to conditions: Homo sapiens, read-out: CD532 EC50 (uM).
The test system of another test is CP50-MEL-B. The description is as above. The conditions noted are these: read-out: CD532 EC50 (uM).

Where two headings read alike, the source gives them in different places.

As for `O=C(Nc1ccc(Nc2nccc(Nc3cc(C4CCCC4)[nH]n3)n2)cc1)Nc1cccc(C(F)(F)F)c1` [CD532, 1-(4-((4-((5-cyclopentyl-1H-pyrazol-3-yl)amino)pyrimidin-2-yl)amino)phenyl)-3-(3-(trifluoromethyl)phenyl)urea], the “p-Histone H3 level” value in the test on phospho-histone H3 was “decreased levels of both MYCN and p-Histone H3 proteins”. In addition, the “wild-type MYCN protein” value with MYCN (SHEP cells expressing MYCNWT, 24 hrs, increasing concentrations (FIG. 12C)) was “dose-dependent decrease in wild-type MYCN protein”. Also, in the test with MYCN (SHEP cells expressing non-phosphorylatable MYCNT58A/S62A, 24 hrs (FIG. 12C)), the MYCNT58A/S62A protein result is recorded as “partially protected from degradation”. In addition, in the test on phospho-pan-Aurora, the phospho-pan-Aurora entry is given as “loss of phospho-pan-Aurora”. Besides, the EC50 (as a rule, the concentration that produces a half-maximal response) in the test on M-14 stood at 0.972 µM; in the test with COLO-800 it was 0.302 µM; in the test on IGR-1 it was 0.27 µM; in the test with SK-MEL-1, 0.649 µM; in the test on AGS, 0.346 µM; in the test on FU97, 0.545 µM. Moreover, the concentration for a half-maximal effect (EC50) worked out at 10.9 µM in the test with NCI-N87; 0.739 µM in the test on B-CPAP; 1.24 µM in the test on JHH-6; 0.567 µM in the test with HLE; 0.427 µM in the test on DJM-1; 0.779 µM with DSH1. The EC50 with HT-144 came out at 0.366 µM; in the test with K5 it was 1.33 µM; in the test on LB2518-MEL (read-out: CD532 EC50 (uM), LB2518-MEL cell line, Skin) it was 0.847 µM; in the test with LB2518-MEL (read-out: CD532 EC50, LB2518-MEL cell line, Skin), 0.709 µM; in the test on NB13, 1.02 µM; in the test on KLE, 2.99 µM. The EC50 in the test with CP50-MEL-B amounted to 0.323 µM.

(Values after patent US12551482B2, “Aurora kinase inhibitors” (The Regents of the University of California, priority 2013, dated 2026).)
